Legend:
[1] = tested on: RT112/84 cell line (FGFR3-fusion); test: Cancer cell line cell viability assay (Cell Titer-Glo), 72 hr; type: cell-based; conditions: Homo sapiens, RT112/84, RT112/84 cell line (FGFR3-fusion)
Source text: (§1) Experimental Purpose: To detect the change of intracellular ATP by Cell Titer-Glo® and to evaluate the inhibitory effect of the compounds on cancer cell lines by determining the in vitro IC50 value of the compounds.
(§2) Cell Titer-Glo® 2.0 Luminescent cell viability assay reagent was purchased from Promega (Madison, WI). KG-1, KATO-III, and MDA-MB-453 cell lines were purchased from American Type Culture Collection (Manassas, VA). RT112/84 cell line was purchased from Millipore-Sigma (St. Louis, MO). HuH7 cells were purchased from Seikisui Xenotech (Kansas City, KS). RT112/84 and MDA-MB-453 cells were cultured in RPMI1640 media supplemented with 10% fetal bovine serum. KG-1 and KATO-III cell lines were cultured in IMDM media supplemented with 20% FBS. HuH7 cells were cultured in IMDM media supplemented with 10% FBS. Cultures were maintained at 37° C. in a humidified atmosphere of 5% CO2 and 95% air.
(§3) Cell Viability Assay Procedure: Cells were plated in 96-well clear bottom/white plates (Corning #3903) at a range of densities depending on the optimal assay window (5,000-20,000 cells/well in […] of media), incubated overnight. The next day, test compound DMSO stock solutions were made at 10 mM and […] final concentration. Compounds were then added to cells in a 9-dose, 4-fold dilution series starting at 3 μM with an HP 300e Digital Dispenser (each dose was applied in triplicate). DMSO was backfilled to each well up to 301 nL total volume of test compound+DMSO, and a total of 301 nL DMSO was added to a control/no test compound well in triplicate. The cells in cell culture plates were incubated with the compounds at 37° C. and 5% CO2 for 72 hours-120 hours depending on the cell line. Then 50 μl of Cell Titer Glo 2.0 reagent was added to each well of the cell culture plates. The contents were covered from light and mixed on an orbital shaker at room temperature for minimum of 10 min. Luminescence was recorded by a Clariostar Plus Microplate Reader (BMG Labtech, Cary, NC). Cells were assessed as a percentage of DMSO only treated control cells. Curves were plotted and IC50 values were calculated using the GraphPad Prism 9 program based on a sigmoidal dose-response equation (log (inhibitor) vs. response—Variable slope, 4-parameter).

[2] = tested on: KATO-III cell line (FGFR2 amplification); test: as above; type: cell-based; conditions: Homo sapiens, KATO III
Source text: as §1, §2, §3

[3] = tested on: KG-1 cell line (FGFR 1-fusion); test: as above; type: cell-based; conditions: Homo sapiens, KG-1, KG-1 cell line (FGFR1-fusion)
Source text: as §1, §2, §3

[4] = target: T1, FGFR1 (Homo sapiens, UniProt P11362); test: Kinase binding assay (kinase-tagged T7 phage, affinity beads, qPCR), Kd; conditions: read-out: FGFR1 (Kd nM)
T1 construct: made in house; host or cells: E. coli (BL21-derived), T7 phage
T1 sequence (P11362 22-822): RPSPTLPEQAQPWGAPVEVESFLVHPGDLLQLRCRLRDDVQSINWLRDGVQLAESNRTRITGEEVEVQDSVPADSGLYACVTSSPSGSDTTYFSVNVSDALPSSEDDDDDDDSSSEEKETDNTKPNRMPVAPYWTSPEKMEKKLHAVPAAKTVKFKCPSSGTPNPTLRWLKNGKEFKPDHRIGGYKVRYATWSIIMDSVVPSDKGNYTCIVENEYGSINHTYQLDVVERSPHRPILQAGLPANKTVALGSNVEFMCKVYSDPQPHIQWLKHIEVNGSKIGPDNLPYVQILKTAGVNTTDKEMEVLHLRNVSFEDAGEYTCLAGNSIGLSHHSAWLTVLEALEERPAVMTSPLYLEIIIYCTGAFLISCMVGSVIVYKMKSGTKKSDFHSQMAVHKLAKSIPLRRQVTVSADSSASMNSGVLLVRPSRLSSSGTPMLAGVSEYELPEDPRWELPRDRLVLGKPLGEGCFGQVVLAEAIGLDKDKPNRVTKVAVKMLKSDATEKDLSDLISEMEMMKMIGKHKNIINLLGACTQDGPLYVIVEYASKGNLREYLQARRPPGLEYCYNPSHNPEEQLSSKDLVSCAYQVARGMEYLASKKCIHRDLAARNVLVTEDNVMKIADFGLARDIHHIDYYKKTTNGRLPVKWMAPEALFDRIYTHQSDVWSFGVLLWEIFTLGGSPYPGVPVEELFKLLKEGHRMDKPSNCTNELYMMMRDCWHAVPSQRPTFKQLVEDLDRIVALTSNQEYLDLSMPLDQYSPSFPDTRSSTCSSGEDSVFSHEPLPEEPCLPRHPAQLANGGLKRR
Procedure, shortened: (§4)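 First, phage lysates carrying tagged kinase are made in E. coli at 32° C. Next, they are combined with blocked biotin-ligand streptavidin beads and compound at 0.9% final DMSO. Finally, eluted kinase is measured by qPCR and Kd is fitted with the Hill equation.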

[5] = target: T2, FGFR3 (Homo sapiens, UniProt P22607); test: as above; conditions: read-out: FGFR3 (Kd nM)
T2 construct: made in house; host or cells: E. coli (BL21-derived), T7 phage
T2 sequence (P22607 23-806): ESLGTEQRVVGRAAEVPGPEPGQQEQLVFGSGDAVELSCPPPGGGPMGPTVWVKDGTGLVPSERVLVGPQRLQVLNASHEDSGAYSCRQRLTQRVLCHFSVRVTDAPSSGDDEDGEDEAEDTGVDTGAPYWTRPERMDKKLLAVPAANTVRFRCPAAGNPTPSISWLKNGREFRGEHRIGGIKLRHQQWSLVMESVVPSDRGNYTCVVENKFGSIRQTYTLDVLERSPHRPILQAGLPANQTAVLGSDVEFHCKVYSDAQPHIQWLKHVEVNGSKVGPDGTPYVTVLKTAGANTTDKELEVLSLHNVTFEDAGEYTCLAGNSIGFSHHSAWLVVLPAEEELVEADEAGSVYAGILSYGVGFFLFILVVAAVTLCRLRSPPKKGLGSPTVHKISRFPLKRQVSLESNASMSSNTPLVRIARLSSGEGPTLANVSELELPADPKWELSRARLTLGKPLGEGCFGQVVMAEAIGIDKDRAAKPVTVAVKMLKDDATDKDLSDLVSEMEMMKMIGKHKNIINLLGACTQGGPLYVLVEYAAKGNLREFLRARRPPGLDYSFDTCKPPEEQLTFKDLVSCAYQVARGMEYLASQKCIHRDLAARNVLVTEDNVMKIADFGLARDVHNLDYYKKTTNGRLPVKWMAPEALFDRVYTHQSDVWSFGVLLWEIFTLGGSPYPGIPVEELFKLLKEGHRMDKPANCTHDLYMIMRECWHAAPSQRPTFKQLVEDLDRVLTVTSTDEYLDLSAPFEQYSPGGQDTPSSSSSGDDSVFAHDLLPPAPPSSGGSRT
Procedure, shortened: as §4

[6] = target: T3, FGFR4 (Homo sapiens, UniProt P22455); test: as above; conditions: read-out: FGFR4 (Kd nM)
T3 construct: made in house; host or cells: E. coli (BL21-derived), T7 phage
T3 sequence (P22455 22-802): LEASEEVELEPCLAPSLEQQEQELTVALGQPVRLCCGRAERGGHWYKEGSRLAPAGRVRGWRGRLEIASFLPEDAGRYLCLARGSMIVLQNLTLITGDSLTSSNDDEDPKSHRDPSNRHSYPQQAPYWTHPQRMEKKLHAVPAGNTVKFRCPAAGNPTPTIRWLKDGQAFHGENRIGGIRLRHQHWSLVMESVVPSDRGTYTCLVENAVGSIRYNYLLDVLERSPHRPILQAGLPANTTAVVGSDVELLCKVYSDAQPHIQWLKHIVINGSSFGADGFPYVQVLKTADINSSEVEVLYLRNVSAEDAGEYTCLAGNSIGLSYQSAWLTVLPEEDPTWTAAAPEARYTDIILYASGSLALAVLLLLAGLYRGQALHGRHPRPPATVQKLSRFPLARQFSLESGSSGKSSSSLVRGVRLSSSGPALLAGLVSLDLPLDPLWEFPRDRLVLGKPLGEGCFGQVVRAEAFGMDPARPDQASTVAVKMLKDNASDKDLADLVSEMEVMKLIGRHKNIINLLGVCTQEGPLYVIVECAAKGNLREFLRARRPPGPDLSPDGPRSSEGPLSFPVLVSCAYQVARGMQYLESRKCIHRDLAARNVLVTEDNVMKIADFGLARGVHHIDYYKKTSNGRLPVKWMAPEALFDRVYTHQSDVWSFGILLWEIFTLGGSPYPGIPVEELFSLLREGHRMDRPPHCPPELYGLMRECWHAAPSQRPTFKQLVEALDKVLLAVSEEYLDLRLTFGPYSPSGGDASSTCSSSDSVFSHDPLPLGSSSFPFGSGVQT
Procedure, shortened: as §4

[7] = target: T4, FGFR2 (Homo sapiens, UniProt P21802); test: as above; conditions: read-out: FGFR2 (Kd nM)
T4 construct: made in house; host or cells: E. coli (BL21-derived), T7 phage
T4 sequence (P21802 22-821): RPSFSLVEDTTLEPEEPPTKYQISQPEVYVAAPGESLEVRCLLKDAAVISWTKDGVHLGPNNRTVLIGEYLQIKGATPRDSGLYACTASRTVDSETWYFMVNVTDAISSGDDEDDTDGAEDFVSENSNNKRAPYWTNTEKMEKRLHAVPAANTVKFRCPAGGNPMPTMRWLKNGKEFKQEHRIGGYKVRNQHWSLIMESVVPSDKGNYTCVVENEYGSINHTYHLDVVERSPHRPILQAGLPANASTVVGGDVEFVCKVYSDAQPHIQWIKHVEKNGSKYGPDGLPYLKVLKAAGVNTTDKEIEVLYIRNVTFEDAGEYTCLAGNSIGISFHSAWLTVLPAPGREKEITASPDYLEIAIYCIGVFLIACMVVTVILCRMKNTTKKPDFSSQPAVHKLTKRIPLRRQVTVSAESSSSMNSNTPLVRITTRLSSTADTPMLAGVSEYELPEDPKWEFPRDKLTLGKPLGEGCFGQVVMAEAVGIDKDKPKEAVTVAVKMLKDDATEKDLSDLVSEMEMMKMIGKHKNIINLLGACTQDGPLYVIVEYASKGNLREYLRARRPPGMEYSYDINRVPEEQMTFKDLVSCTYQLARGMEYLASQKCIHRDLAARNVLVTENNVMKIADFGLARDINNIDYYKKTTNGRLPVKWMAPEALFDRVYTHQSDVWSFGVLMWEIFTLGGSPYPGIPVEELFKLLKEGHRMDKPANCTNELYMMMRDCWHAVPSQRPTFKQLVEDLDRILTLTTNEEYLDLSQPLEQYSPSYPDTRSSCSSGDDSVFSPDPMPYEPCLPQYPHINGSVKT
Procedure, shortened: as §4

[8] = target: T5, FGFR3 (V555M) (Homo sapiens, UniProt P22607, V555M); test: as above; conditions: V555M mutant; read-out: FGFR3 (V555M) (Kd nM)
T5 construct: made in house; host or cells: E. coli (BL21-derived), T7 phage
T5 sequence (P22607 23-806 V555M): as the sequence (P22607 23-806) above, with V533M counted along it
Procedure, shortened: as §4

Structure (SMILES) | IC50 [1] | IC50 [2] | IC50 [3] | Kd [4] | Kd [5] | Kd [6] | Kd [7] | Kd [8]
C[C@@H](Oc1ccc2[nH]nc(-c3cnc(N4CC(N)(CC#N)C4)c(F)c3)c2c1)c1c(Cl)cncc1Cl [Example 241, (R)-2-(3-amino-1-(5-(5-(1-(3,5-dichloropyridin-4-yl)ethoxy)-1H-indazol-3-yl)-3-fluoropyridin-2-yl)azetidin-3-yl)acetonitrile] | 0.1 to 50 nM | 0.1 to 50 nM | 50 to 200 nM | 1 to 50 nM | 1 to 50 nM |  |  | 
C=CCNC1(CC#N)CN(c2ncc(-c3n[nH]c4ccc(O[C@H](C)c5c(Cl)cncc5Cl)cc34)cc2F)C1 [Example 248, 2-[3-(allylamino)-1-[5-[5-[(1R)-1-(3,5-dichloro-4-pyridyl)ethoxy]-1H-indazol-3-yl]-3-fluoro-2-pyridyl]azetidin-3-yl]acetonitrile] | 0.1 to 50 nM | 50 to 200 nM | 200 to 1000 nM | 1 to 50 nM | 1 to 50 nM |  |  | 
C[C@@H](Oc1ccc2[nH]nc(-c3ccc(N4CC(C)(NCC5CC5)C4)nn3)c2c1)c1c(Cl)cncc1Cl [Example 249, (R)-N-(cyclopropyl-methyl)-1-(6-(5-(1-(3,5-dichloropyridin-4-yl)ethoxy)-1H-indazol-3-yl)pyridazin-3-yl)-3-methylazetidin-3-amine] | 0.1 to 50 nM | 0.1 to 50 nM | 50 to 200 nM | 1 to 50 nM | 1 to 50 nM |  |  | 
C[C@@H](Oc1ccc2[nH]nc(-c3ccc(N4CC(N)(CCS(C)(=O)=O)C4)nn3)c2c1)c1c(Cl)cncc1Cl [Example 294, (R)-1-(6-(5-(1-(3,5-dichloropyridin-4-yl)ethoxy)-1H-indazol-3-yl)pyridazin-3-yl)-3-(2-(methylsulfonyl)ethyl)azetidin-3-amine] | 0.1 to 50 nM | 50 to 200 nM | > 1000 nM | 1 to 50 nM | 1 to 50 nM |  |  | 
CCCC1(N)CN(c2ccc(-c3n[nH]c4ccc(O[C@H](C)c5c(Cl)cncc5Cl)cc34)nn2)C1 [Example 295, (R)-1-(6-(5-(1-(3,5-dichloropyridin-4-yl)ethoxy)-1H-indazol-3-yl)pyridazin-3-yl)-3-propylazetidin-3-amine] | 0.1 to 50 nM | 50 to 200 nM |  | 1 to 50 nM | 1 to 50 nM |  |  | 
C[C@@H](Oc1ccc2[nH]nc(-c3ccc(N4CC(C)(NC(=O)CN(C)C)C4)nn3)c2c1)c1c(Cl)cncc1Cl [Example 297, (R)—N-(1-(6-(5-(1-(3,5-dichloropyridin-4-yl)ethoxy)-1H-indazol-3-yl)pyridazin-3-yl)-3-methylazetidin-3-yl)-2-(dimethylamino)acetamide] | 0.1 to 50 nM | 0.1 to 50 nM | 0.1 to 50 nM | 1 to 50 nM | 1 to 50 nM |  |  | 
C[C@@H](Oc1ccc2[nH]nc(-c3cnc(N4CC(N)(CCC#N)C4)c(F)c3)c2c1)c1c(Cl)cncc1Cl [Example 298, (R)-3-(3-amino-1-(5-(5-(1-(3,5-dichloropyridin-4-yl)ethoxy)-1H-indazol-3-yl)-3-fluoropyridin-2-yl)azetidin-3-yl)propanenitrile] | 0.1 to 50 nM | 0.1 to 50 nM | 50 to 200 nM | 1 to 50 nM | 1 to 50 nM |  |  | 
CCC1(N)CN(c2ccc(-c3n[nH]c4ccc(O[C@H](C)c5c(Cl)cncc5Cl)cc34)nn2)C1 [Example 299, (R)-1-(6-(5-(1-(3,5-Dichloropyridin-4-yl)ethoxy)-1H-indazol-3-yl)pyridazin-3-yl)-3-ethylazetidin-3-amine] | 0.1 to 50 nM | 50 to 200 nM | 50 to 200 nM | 1 to 50 nM | 1 to 50 nM |  |  | 
CNC(=O)C1(N)CN(c2ccc(-c3n[nH]c4ccc(O[C@H](C)c5c(Cl)cncc5Cl)cc34)nn2)C1 [Example 300, (R)-3-amino-1-(6-(5-(1-(3,5-dichloropyridin-4-yl)ethoxy)-1H-indazol-3-yl)pyridazin-3-yl)-N-methylazetidine-3-carboxamide] | 0.1 to 50 nM | 50 to 200 nM | > 1000 nM | 1 to 50 nM | 1 to 50 nM |  |  | 
C[C@@H](Oc1ccc2[nH]nc(-c3ccc(N4CC(N)(C(=O)N(C)C)C4)nn3)c2c1)c1c(Cl)cncc1Cl [Example 301, (R)-3-Amino-1-(6-(5-(1-(3,5-dichloropyridin-4-yl)ethoxy)-1H-indazol-3-yl)pyridazin-3-yl)-N,N-dimethylazetidine-3-carboxamide] | 0.1 to 50 nM | 0.1 to 50 nM | 50 to 200 nM | 1 to 50 nM | 1 to 50 nM |  |  | 
C[C@@H](Oc1ccc2[nH]nc(-c3cnc(N4CC(C)(NCCF)C4)c(F)c3)c2c1)c1c(Cl)cncc1Cl [Example 303, (R)-1-(5-(5-(1-(3,5-dichloropyridin-4-yl)ethoxy)-1H-indazol-3-y1)-3-fluoropyridin-2-yl)-N-(2-fluoroethyl)-3-methylazetidin-3-amine] | 0.1 to 50 nM | 0.1 to 50 nM | 50 to 200 nM | 1 to 50 nM | 1 to 50 nM |  |  | 
C[C@@H](Oc1ccc2[nH]nc(-c3ccc(N4CC(C)(NCCF)C4)nn3)c2c1)c1c(Cl)cncc1Cl [Example 309, (R)-1-(6-(5-(1-(3,5-dichloropyridin-4-yl)ethoxy)-1H-indazol-3-yl)pyridazin-3-yl)-N-(2-fluoroethyl)-3-methylazetidin-3-amine] | 0.1 to 50 nM |  | 50 to 200 nM | 1 to 50 nM | 1 to 50 nM |  |  | 
C[C@@H](Oc1ccc2[nH]nc(-c3cnc(N4CC(C)(NCCC#N)C4)c(F)c3)c2c1)c1c(Cl)cncc1Cl [Example 310, (R)-3-((1-(5-(5-(1-(3,5-dichloropyridin-4-yl)ethoxy)-1H-indazol-3-yl)-3-fluoropyridin-2-yl)-3-methylazetidin-3-yl)amino)propane-nitrile] | 0.1 to 50 nM |  | 50 to 200 nM | 1 to 50 nM | 1 to 50 nM |  |  | 
C[C@@H](Oc1ccc2[nH]nc(-c3cnc(N4CC(C)(CP(C)(C)=O)C4)c(C#N)c3)c2c1F)c1c(Cl)cncc1Cl [Example 323, (R)-5-(5-(1-(3,5-dichloropyridin-4-yl)ethoxy)-4-fluoro-1H-indazol-3-yl)-2-(3-((dimethyl-phosphoryl)methyl)-3-methylazetidin-1-yl)nicotinonitrile] |  |  |  | > 1000 nM | > 1000 nM | 1 to 50 nM | > 1000 nM | 300 to 1000 nM
C[C@@H](Oc1ccc2[nH]nc(-c3cnc(N4CC(C)(NCCO)C4)c(C#N)c3)c2c1F)c1c(Cl)cncc1Cl [Example 324, (R)-5-(5-(1-(3,5-dichloropyridin-4-yl)ethoxy)-4-fluoro-1H-indazol-3-yl)-2-(3-((2-hydroxy-ethyl)amino)-3-methylazetidin-1-yl)nicotinonitrile] |  |  |  | > 1000 nM | > 1000 nM | 1 to 50 nM | > 1000 nM | 300 to 1000 nM
CC(C)NCC1(C)CN(c2ncc(-c3n[nH]c4ccc(O[C@H](C)c5c(Cl)cncc5Cl)c(F)c34)cc2C#N)C1 [Example 326, (R)-5-(5-(1-(3,5-dichloropyridin-4-yl)ethoxy)-4-fluoro-1H-indazol-3-yl)-2-(3-((isopropylamino)methyl)-3-methylazetidin-1-yl)nicotinonitrile] |  |  |  | > 1000 nM | > 1000 nM | 1 to 50 nM | > 1000 nM | > 1000 nM
C[C@@H](Oc1ccc2[nH]nc(-c3cnc(N4CC(C)(N5CCOCC5)C4)c(C#N)c3)c2c1F)c1c(Cl)cncc1Cl [Example 327, (R)-5-(5-(1-(3,5-dichloropyridin-4-yl)ethoxy)-4-fluoro-1H-indazol-3-yl)-2-(3-methyl-3-morpholinoazetidin-1-yl)nicotinonitrile] |  |  |  | > 1000 nM | > 1000 nM | 50 to 300 nM | > 1000 nM | > 1000 nM

Source: patent publication US20250368666A1, “INDAZOLE COMPOUNDS” (TYRA BIOSCIENCES, INC., priority 2022, published 2025)
